Data published in patent publication US20250235543A1, “MODIFIED PROTEINS AND PROTEIN DEGRADERS” (Cullgen (Shanghai), Inc., priority 2021, published 2025).
Like-named read-outs stand apart in the source and are kept apart here.

Assays:
cyclin D1 = assay: Cyclin D1 percentage degradation in Calu-1 cells (immunoblotting); assay type: cell-based; settings: 200 nM, 16 hours
Summary of the method: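 Cells were rinsed once in cold PBS and lysed in cold RIPA buffer containing protease and phosphatase inhibitors, with gentle agitation at 4° C. for 30 min. Lysates were spun at 13,000 rpm for 10 min at 4° C., protein was measured by BCA, and samples were boiled in Laemmli buffer at 99° C. for 5 min before SDS-PAGE immunoblotting.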

CDK4 = target: T1, CDK4 (Homo sapiens, UniProt P11802); assay: CDK4 percentage degradation in Calu-1 cells (immunoblotting); assay type: cell-based; settings: read-out: CDK4 Degradation (200 nM)
T1 construct: endogenous in cells; host or cells: Calu-1
Summary of the method: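 Cultured cells were rinsed once in cold PBS and lysed in cold RIPA buffer containing protease and phosphatase inhibitors, with gentle agitation at 4° C. for 30 min. Lysates were centrifuged at 13,000 rpm for 10 min at 4° C., and protein was quantified by BCA. Samples were then separated by SDS-PAGE, detected with ECL, and the CDK4 bands quantified in Image Lab.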

T1 sequence (P11802 2-303 limits assumed): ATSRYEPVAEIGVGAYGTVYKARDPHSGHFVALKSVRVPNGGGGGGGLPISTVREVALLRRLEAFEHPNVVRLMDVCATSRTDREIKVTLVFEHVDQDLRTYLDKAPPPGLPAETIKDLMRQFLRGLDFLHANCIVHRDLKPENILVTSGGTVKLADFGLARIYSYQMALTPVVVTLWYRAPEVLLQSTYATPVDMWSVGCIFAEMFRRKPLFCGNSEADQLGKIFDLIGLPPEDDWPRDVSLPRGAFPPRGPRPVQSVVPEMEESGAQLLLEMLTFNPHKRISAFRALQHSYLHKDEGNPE
T1 sequence (P24385 whole entry partner): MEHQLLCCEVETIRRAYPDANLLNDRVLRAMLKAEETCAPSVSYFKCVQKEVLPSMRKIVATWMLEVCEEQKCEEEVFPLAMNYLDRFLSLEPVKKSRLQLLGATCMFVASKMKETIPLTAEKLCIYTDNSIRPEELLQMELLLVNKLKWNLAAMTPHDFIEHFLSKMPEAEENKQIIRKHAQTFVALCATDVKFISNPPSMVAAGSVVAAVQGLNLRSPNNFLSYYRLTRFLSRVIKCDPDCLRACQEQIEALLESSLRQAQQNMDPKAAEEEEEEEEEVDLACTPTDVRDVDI
T1 sequence (Q16531 2-1140 limits assumed, further chain): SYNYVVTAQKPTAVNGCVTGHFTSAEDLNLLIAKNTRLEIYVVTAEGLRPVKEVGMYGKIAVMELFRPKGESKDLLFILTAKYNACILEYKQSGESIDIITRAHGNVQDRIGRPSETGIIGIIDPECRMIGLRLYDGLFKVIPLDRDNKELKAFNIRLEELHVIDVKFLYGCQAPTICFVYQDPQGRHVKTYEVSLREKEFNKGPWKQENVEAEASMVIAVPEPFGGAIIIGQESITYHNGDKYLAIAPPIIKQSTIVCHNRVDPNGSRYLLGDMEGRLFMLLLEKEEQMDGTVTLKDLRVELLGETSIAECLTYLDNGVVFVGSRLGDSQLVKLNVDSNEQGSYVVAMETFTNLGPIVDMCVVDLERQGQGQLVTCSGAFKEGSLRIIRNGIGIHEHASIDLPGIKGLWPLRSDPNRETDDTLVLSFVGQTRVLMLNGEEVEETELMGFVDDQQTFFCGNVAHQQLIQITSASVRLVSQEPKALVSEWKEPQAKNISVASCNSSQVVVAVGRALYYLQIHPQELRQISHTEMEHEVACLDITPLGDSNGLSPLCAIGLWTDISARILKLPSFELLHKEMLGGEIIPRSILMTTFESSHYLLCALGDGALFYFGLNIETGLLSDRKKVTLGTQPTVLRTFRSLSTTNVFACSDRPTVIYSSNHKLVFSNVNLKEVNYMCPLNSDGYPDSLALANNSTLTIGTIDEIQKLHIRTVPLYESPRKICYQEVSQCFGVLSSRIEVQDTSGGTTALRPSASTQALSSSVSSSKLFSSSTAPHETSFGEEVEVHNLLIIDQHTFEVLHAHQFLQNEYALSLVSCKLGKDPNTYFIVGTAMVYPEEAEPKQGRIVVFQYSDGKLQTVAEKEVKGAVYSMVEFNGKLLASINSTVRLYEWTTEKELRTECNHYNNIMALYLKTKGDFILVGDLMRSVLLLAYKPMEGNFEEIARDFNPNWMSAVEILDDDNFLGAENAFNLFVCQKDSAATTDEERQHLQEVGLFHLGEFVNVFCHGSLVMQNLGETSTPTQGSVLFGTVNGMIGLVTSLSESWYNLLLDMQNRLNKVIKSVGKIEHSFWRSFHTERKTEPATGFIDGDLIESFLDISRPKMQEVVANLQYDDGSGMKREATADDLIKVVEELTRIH

SMILES | inhibition at 0.2 µM (CDK4; Calu-1 cells, 200 nM, 16 hours) [%] | CyclinD1 Degradation (200 nM) (cyclin D1) | inhibition at 0.2 µM (CDK4; Calu-1, 16 h) [%]
CC(=O)c1c(C)c2cnc(Nc3ccc(N4CCN(C(=O)CCOCCOCCNc5ccc(C)c(C(=O)Nc6nc(C)c(C)s6)c5)CC4)cn3)nc2n(C2CCCC2)c1=O [CPD-130, 5-((2-(2-(3-(4-(6-((6-Acetyl-8-cyclopentyl-5-methyl-7-oxo-7,8-dihydropyrido[2,3-d]pyrimidin-2-yl)amino)pyridin-3-yl)piperazin-1-yl)-3-oxopropoxy)ethoxy)ethyl)amino)-N-(4,5-dimethylthiazol-2-yl)-2-methylbenzamide] |  | D (protein percentage degradation <30%) | < 30
CC(=O)c1c(C)c2cnc(Nc3ccc(N4CCN(C(=O)CCOCCOCCOCCOCCOCCOCCNc5ccc(C)c(C(=O)Nc6nc(C)c(C)s6)c5)CC4)cn3)nc2n(C2CCCC2)c1=O [CPD-131, 5-((21-(4-(6-((6-Acetyl-8-cyclopentyl-5-methyl-7-oxo-7,8-dihydropyrido[2,3-d]pyrimidin-2-yl)amino)pyridin-3-yl)piperazin-1-yl)-21-oxo-3,6,9,12,15,18-hexaoxahenicosyl)amino)-N-(4,5-dimethylthiazol-2-yl)-2-methylbenzamide] |  | D (protein percentage degradation <30%) | < 30
CC(=O)c1c(C)c2cnc(Nc3ccc(N4CCN(CC(=O)NCCOCCOCCOCCOCCOCCOCCNc5ccc(C)c(C(=O)Nc6nc(C)c(C)s6)c5)CC4)cn3)nc2n(C2CCCC2)c1=O [CPD-132, 5-((1-(4-(6-((6-Acetyl-8-cyclopentyl-5-methyl-7-oxo-7,8-dihydropyrido[2,3-d]pyrimidin-2-yl)amino)pyridin-3-yl)piperazin-1-yl)-2-oxo-6,9,12,15,18,21-hexaoxa-3-azatricosan-23-yl)amino)-N-(4,5-dimethylthiazol-2-yl)-2-methylbenzamide] | > 80 | A (protein percentage degradation >=80%) | 
CC(=O)c1c(C)c2cnc(Nc3ccc(N4CCN(C(=O)CCOCCOCCOCCOCCOCCOCCNc5cccc(C(=O)Nc6nc(C)c(C)s6)c5C)CC4)cn3)nc2n(C2CCCC2)c1=O [CPD-133, 3-((21-(4-(6-((6-Acetyl-8-cyclopentyl-5-methyl-7-oxo-7,8-dihydropyrido[2,3-d]pyrimidin-2-yl)amino)pyridin-3-yl)piperazin-1-yl)-21-oxo-3,6,9,12,15,18-hexaoxahenicosyl)amino)-N-(4,5-dimethylthiazol-2-yl)-2-methylbenzamide] |  | A (protein percentage degradation >=80%) | 50 to 80
CC(=O)c1c(C)c2cnc(Nc3ccc(N4CCN(C(=O)CCOCCOCCOCCOCCOCCNc5ccc(C)c(C(=O)Nc6nc(C)c(C)s6)c5)CC4)cn3)nc2n(C2CCCC2)c1=O [CPD-134, 5-((18-(4-(6-((6-Acetyl-8-cyclopentyl-5-methyl-7-oxo-7,8-dihydropyrido[2,3-d]pyrimidin-2-yl)amino)pyridin-3-yl)piperazin-1-yl)-18-oxo-3,6,9,12,15-pentaoxaoctadecyl)amino)-N-(4,5-dimethylthiazol-2-yl)-2-methylbenzamide] |  | D (protein percentage degradation <30%) | < 30
CC(=O)c1c(C)c2cnc(Nc3ccc(N4CCN(C(=O)CNc5ccc(C)c(C(=O)Nc6nc(C)c(C)s6)c5)CC4)cn3)nc2n(C2CCCC2)c1=O [CPD-135, 5-((2-(4-(6-((6-Acetyl-8-cyclopentyl-5-methyl-7-oxo-7,8-dihydropyrido[2,3-d]pyrimidin-2-yl)amino)pyridin-3-yl)piperazin-1-yl)-2-oxoethyl)amino)-N-(4,5-dimethylthiazol-2-yl)-2-methylbenzamide] |  | D (protein percentage degradation <30%) | < 30
CC(=O)c1c(C)c2cnc(Nc3ccc(N4CCN(C(=O)CCCCCNc5cccc(C(=O)Nc6nc(C)c(C)s6)c5C)CC4)cn3)nc2n(C2CCCC2)c1=O [CPD-137, 3-((6-(4-(6-((6-Acetyl-8-cyclopentyl-5-methyl-7-oxo-7,8-dihydropyrido[2,3-d]pyrimidin-2-yl)amino)pyridin-3-yl)piperazin-1-yl)-6-oxohexyl)amino)-N-(4,5-dimethylthiazol-2-yl)-2-methylbenzamide] |  | D (protein percentage degradation <30%) | < 30

Now from value to molecule, other results behind:

inhibition at 0.2 µM (CDK4; Calu-1 cells, 200 nM, 16 hours) [%] | SMILES | CyclinD1 Degradation (200 nM) (cyclin D1) | inhibition at 0.2 µM (CDK4; Calu-1, 16 h) [%]
50 to 80 | CC(=O)c1c(C)c2cnc(Nc3ccc(N4CCN(CC(=O)NCCCCCCCC(=O)Nc5ccccc5C(=O)Nc5nc(C)c(C)s5)CC4)cn3)nc2n(C2CCCC2)c1=O [CPD-136, 2-(8-(2-(4-(6-((6-Acetyl-8-cyclopentyl-5-methyl-7-oxo-7,8-dihydropyrido[2,3-d]pyrimidin-2-yl)amino)pyridin-3-yl)piperazin-1-yl)acetamido)octanamido)-N-(4,5-dimethylthiazol-2-yl)benzamide] | A (protein percentage degradation >=80%) | 
< 30 | CC(=O)c1c(C)c2cnc(Nc3ccc(N4CCN(C(=O)CCCCCCNc5cccc(C(=O)Nc6nc(C)c(C)s6)c5C)CC4)cn3)nc2n(C2CCCC2)c1=O [CPD-138, 3-((7-(4-(6-((6-Acetyl-8-cyclopentyl-5-methyl-7-oxo-7,8-dihydropyrido[2,3-d]pyrimidin-2-yl)amino)pyridin-3-yl)piperazin-1-yl)-7-oxoheptyl)amino)-N-(4,5-dimethylthiazol-2-yl)-2-methylbenzamide] | D (protein percentage degradation <30%) | 
< 30 | CC(=O)c1c(C)c2cnc(Nc3ccc(N4CCN(CC(=O)NCCOCCOCCC(=O)Nc5cccc(C)c5C(=O)Nc5nc(C)c(C)s5)CC4)cn3)nc2n(C2CCCC2)c1=O [CPD-139, 2-(3-(2-(2-(2-(4-(6-((6-Acetyl-8-cyclopentyl-5-methyl-7-oxo-7,8-dihydropyrido[2,3-d]pyrimidin-2-yl)amino)pyridin-3-yl)piperazin-1-yl)acetamido)ethoxy)ethoxy)propanamido)-N-(4,5-dimethylthiazol-2-yl)-6-methylbenzamide] | D (protein percentage degradation <30%) | 
50 to 80 | CC(=O)c1c(C)c2cnc(Nc3ccc(N4CCN(CC(=O)NCCOCCOCCC(=O)Nc5cc(Cl)ccc5C(=O)Nc5nc(C)c(C)s5)CC4)cn3)nc2n(C2CCCC2)c1=O [CPD-140, 2-(3-(2-(2-(2-(4-(6-((6-Acetyl-8-cyclopentyl-5-methyl-7-oxo-7,8-dihydropyrido[2,3-d]pyrimidin-2-yl)amino)pyridin-3-yl)piperazin-1-yl)acetamido)ethoxy)ethoxy)propanamido)-4-chloro-N-(4,5-dimethylthiazol-2-yl)benzamide] | A (protein percentage degradation >=80%) | 
50 to 80 | CC(=O)c1c(C)c2cnc(Nc3ccc(N4CCN(CC(=O)NCCOCCOCCC(=O)Nc5ccc(C)cc5C(=O)Nc5nc(C)c(C)s5)CC4)cn3)nc2n(C2CCCC2)c1=O [CPD-141, 2-(3-(2-(2-(2-(4-(6-((6-Acetyl-8-cyclopentyl-5-methyl-7-oxo-7,8-dihydropyrido[2,3-d]pyrimidin-2-yl)amino)pyridin-3-yl)piperazin-1-yl)acetamido)ethoxy)ethoxy)propanamido)-N-(4,5-dimethylthiazol-2-yl)-5-methylbenzamide] | A (protein percentage degradation >=80%) | 
< 30 | CC(=O)c1c(C)c2cnc(Nc3ccc(N4CCN(CC(=O)NCCOCCOCCC(=O)Nc5ccc(Cl)cc5C(=O)Nc5nc(C)c(C)s5)CC4)cn3)nc2n(C2CCCC2)c1=O [CPD-142, 2-(3-(2-(2-(2-(4-(6-((6-Acetyl-8-cyclopentyl-5-methyl-7-oxo-7,8-dihydropyrido[2,3-d]pyrimidin-2-yl)amino)pyridin-3-yl)piperazin-1-yl)acetamido)ethoxy)ethoxy)propanamido)-5-chloro-N-(4,5-dimethylthiazol-2-yl)benzamide] | D (protein percentage degradation <30%) | 
> 80 | CC(=O)c1c(C)c2cnc(Nc3ccc(N4CCN(CC(=O)NCCOCCOCCC(=O)Nc5cc(F)ccc5C(=O)Nc5nc(C)c(C)s5)CC4)cn3)nc2n(C2CCCC2)c1=O [CPD-143, 2-(3-(2-(2-(2-(4-(6-((6-Acetyl-8-cyclopentyl-5-methyl-7-oxo-7,8-dihydropyrido[2,3-d]pyrimidin-2-yl)amino)pyridin-3-yl)piperazin-1-yl)acetamido)ethoxy)ethoxy)propanamido)-N-(4,5-dimethylthiazol-2-yl)-4-fluorobenzamide] | A (protein percentage degradation >=80%) | 
50 to 80 | CC(=O)c1c(C)c2cnc(Nc3ccc(N4CCN(CC(=O)NCCOCCOCCC(=O)Nc5cc(Br)ccc5C(=O)Nc5nc(C)c(C)s5)CC4)cn3)nc2n(C2CCCC2)c1=O [CPD-144, 2-(3-(2-(2-(2-(4-(6-((6-Acetyl-8-cyclopentyl-5-methyl-7-oxo-7,8-dihydropyrido[2,3-d]pyrimidin-2-yl)amino)pyridin-3-yl)piperazin-1-yl)acetamido)ethoxy)ethoxy)propanamido)-4-bromo-N-(4,5-dimethylthiazol-2-yl)benzamide] | A (protein percentage degradation >=80%) | 
< 30 | CC(=O)c1c(C)c2cnc(Nc3ccc(N4CCN(CC(=O)NCCOCCOCCC(=O)Nc5ccc(Br)cc5C(=O)Nc5nc(C)c(C)s5)CC4)cn3)nc2n(C2CCCC2)c1=O [CPD-145, 2-(3-(2-(2-(2-(4-(6-((6-Acetyl-8-cyclopentyl-5-methyl-7-oxo-7,8-dihydropyrido[2,3-d]pyrimidin-2-yl)amino)pyridin-3-yl)piperazin-1-yl)acetamido)ethoxy)ethoxy)propanamido)-5-bromo-N-(4,5-dimethylthiazol-2-yl)benzamide] | D (protein percentage degradation <30%) | 
